Experimental data published in US20220241409A1, “WATER SOLUBLE ADJUVANT AND COMPOSITION CONTAINING SAME” (Sumitomo Dainippon Pharma Co., Ltd., priority 2019, published 2022).

Tests used:
[1] = tested on: HLA-A*02:01 transgenic mouse; experiment: In vivo adjuvant activity, CTL induction with vaccine b (Montanide ISA 51 VG), IFNγ ELISPOT (Test 8); details: compound (32.5 ng or 325 ng per body) added to vaccine b versus no compound; twice, one week interval
Protocol: The in vivo adjuvant activity of the compounds prepared in Examples 2 and 3 was evaluated in the following procedure. To a cocktail vaccine comprising Compound of formula 4 prepared in Reference example 9 and Peptide SEQ ID No. 3 prepared in Reference example 3 with Montanide ISA51 VG (hereinafter, referred to as “vaccine b”) was added the compound prepared in Example 2 or 3 to prepare each vaccine. The vaccine was administered to a HLA-A*02:01 transgenic mouse, and the adjuvant activity of each vaccine was evaluated by the method of testing antigen-specific CTL induction.
Specifically, Compound of formula 4 and Peptide SEQ ID No. 3 were dissolved in DMSO, and then diluted with water for injection to concentrations of Compound of formula 4 of 3 mg/mL and Peptide SEQ ID No. 3 of 2.25 mg/mL. The diluted peptide solution was mixed and emulsified with an equal volume of Montanide ISA 51 VG (Seppic) to prepare vaccine b. Cocktail vaccine b was injected to mice intradermally at the tail base area in an amount for administering 300 μg of Compound of formula 4 per body and 225 μg of Peptide SEQ ID No. 3 per body. Or, in the step of preparing vaccine b, the compound prepared in Example 3 was added to the diluted peptide solution to prepare a vaccine, and the prepared vaccine was injected to mice intradermally at the tail base area in an amount for administering 300 μg of Compound of formula 4 per body, 225 μg of Peptide SEQ ID No. 3 per body, and 32.5 ng or 325 ng of the compound prepared in Example 3 per body. Or, in the step of preparing vaccine b, the compound prepared in Example 2 was added to the diluted peptide solution to prepare a vaccine, and the prepared vaccine was injected to mice intradermally at the tail base area in an amount for administering 300 μg of Compound of formula 4 per body, 225 μg of Peptide SEQ ID No. 3 per body, and 32.5 ng or 325 ng of the compound prepared in Example 2 per body. The administrations were done twice, which had one week interval. One week after the final administration, the mice were sacrificed with CO2 gas. Splenocytes were harvested from spleens removed from the mice. Like Test 6, Peptide (SEQ ID No. 1 or SEQ ID No. 5) was added to the splenocyte-containing ELISPOT plate, and the plate was incubated overnight at 37° C. under an atmosphere of 5% CO2 to re-stimulate the peptide in vitro. Then, after removal of the supernatant from the wells, stained spots on the ELISPOT plate were counted.

[2] = tested on: HLA-A*02:01 transgenic mouse; experiment: In vivo adjuvant activity, CTL induction with vaccine a, IFNγ ELISPOT (Test 7); details: for CTL counts responsive to Peptide SEQ ID No. 5: compound added to vaccine a versus no compound, Example 2 325 ng per body, Reference example 12 225 ng per body, twice, one week interval
Protocol: The in vivo adjuvant activity of the compound prepared in Example 2 and the compound prepared in Reference example 12 was evaluated in the following procedure. To vaccine a was added the compound prepared in Example 2 or the compound prepared in Reference example 12 to prepare each vaccine, and the vaccine was administered to a HLA-A*02:01 transgenic mouse, and the adjuvant activity of each vaccine was evaluated by the method of testing antigen-specific CTL induction.
Specifically, vaccine a prepared like Test 6 was injected to mice intradermally at the tail base area in an amount for administering 300 μg of Compound of formula 4 per body and 225 μg of Peptide SEQ ID NO. 3 per body. Or, in the step of preparing vaccine a, the compound prepared in Example 2 was added to the diluted peptide solution to prepare a vaccine, and the prepared vaccine was injected to mice intradermally at the tail base area in an amount for administering 300 μg of Compound of formula 4 per body, 225 μg of Peptide SEQ ID No. 3 per body, and 325 ng of the compound prepared in Example 2 per body. Or, in the step of preparing vaccine a, the compound prepared in Reference example 12 was added to the diluted peptide solution to prepare a vaccine, and the prepared vaccine was injected to mice intradermally at the tail base area in an amount for administering 300 μg of Compound of formula 4 per body, 225 μg of Peptide SEQ ID No. 3 per body, and 225 ng of the compound prepared in Reference example 12 per body. The administrations were done twice, which had one week interval. One week after the final administration, the mice were sacrificed with CO2 gas. Splenocytes were harvested from spleens removed from the mice. In particular, an ELISPOT plate was treated with an anti-mouse-IFNγ antibody on the day before preparation of the splenocyte samples. On the next day, the plate was blocked by treatment with an RPMI 1640 medium with 10% FBS. To the blocked ELISPOT plate, the prepared splenocyte samples were added at 6.25×10^4 cells/well. […] Stained spots were counted on ImmunoSpot Analyzer.

CCCCOc1nc(N)c2[nH]c(=O)n(Cc3ccc(CN(C)CCOCCOCCOCCOCCO)nc3)c2n1 [Example 2, 6-amino-2-butoxy-9-{[6-(16-hydroxy-2-methyl-5,8,11,14-tetraoxa-2-azahexadecan-1-yl)pyridin-3-yl]methyl}-7,9-dihydro-8H-purin-8-one-trifluoroacetate]
CTL counts responsive to Peptide of SEQ ID No. 1 [1]: more | CTL counts responsive to Peptide of SEQ ID No. 5 [1]: more | increase of the CTL counts (Peptide SEQ ID No. 5) compared with Reference example 12 ([2]; Example 2 325 ng per body versus Reference example 12 225 ng per body, added to vaccine): more | CTL counts responsive to Peptide SEQ ID No. 5 [2]: more

CCCCOc1nc(N)c2[nH]c(=O)n(Cc3ccc(CN(C)CCOCCOCCOCCOCCO)cc3)c2n1 [Example 3, 6-amino-2-butoxy-9-{[4-(16-hydroxy-2-methyl-5,8,11,14-tetraoxa-2-azahexadecan-1-yl)phenyl]methyl}-7,9-dihydro-8H-purin-8-one]
CTL counts responsive to Peptide of SEQ ID No. 1 [1]: more | CTL counts responsive to Peptide of SEQ ID No. 5 [1]: more

CCCCOc1nc(N)c2[nH]c(=O)n(Cc3ccc(CNC)nc3)c2n1 [Reference example 12, reference compound]
CTL counts responsive to Peptide SEQ ID No. 5 [2]: more
